# Laboratory results published in publication PMC7887271, “Fast acting allosteric phosphofructokinase inhibitors block trypanosome glycolysis and cure acute African trypanosomiasis in mice” (Nature Communications, 2021).
# Several values for one entry are separate records, joined by “and”; a condition that tells them apart may be missing. Equal entries are not always repeated.
# Test system: T. b. brucei GVR35-Luc2
# Assay: T. b. brucei GVR35-Luc2 time-to-kill assay (luciferin)
# Type: cell-based
# Conditions: for Luminescence (medium-subtracted), Average: average of replicates; for % Cell viability, individual replicates / % Inhibition, individual replicates / Luminescence (medium-subtracted), individual replicates: replicate wells; for Luminescence, Average / Luminescence, individual replicates: Time to kill assay for GVR35 cells
# Method: Enzyme activity was measured using an aldolase/TIM linked assay at 25 °C. […] Experiments were carried out in duplicate. Data are presented as mean values ± standard deviation. […] Source data are provided as a Source Data File. b Kill time of CTCB-405 compared with existing HAT drugs in the clinic. […] Over 99% of trypanosomes were killed in under 30 min compared with much slower killing rates for the other drugs. The points on the graph for CTCB-405 were determined from two independent biological replicate experiments with each time point measured twice (using duplicate technical replicates). The ESD for each point on the graph is between 0.7 and 1.4%. For drugs in clinical use each point on the graph is the average of two technical replicates from one experiment (with a maximum difference of 7.8% for any of the points). Source data are provided as a Source Data File.
# As predicted from the biology of the BSF that relies wholly on glycolysis for ATP production, inhibition of the pathway results in a very fast TTK. Two experimental methods were used to measure ATP levels as a real-time indicator of viability. For Tb427 parasites, a Cell Titre Glo kit was used and for the TbGVR35 bioluminescent strain, killing was assessed by adding luciferin which requires ATP to produce a luminescent signal (Supplementary Methods 4.3 and 4.4). […] The BSF of T. brucei cannot produce ATP by oxidative phosphorylation and is solely dependent on flux through the glycolytic pathway. The clear correlation between inhibitor dose and reduction in ATP production, as observed in the TTK assays strongly supports the proposed mode of action of the CTCB compounds is by blocking glycolysis. It is a long-established experimental observation that withdrawal of glucose nutrient leads to rapid loss of motility and cell death. It has recently been shown that the BSF of T. brucei can proliferate on high levels of glycerol; however, we have shown that addition of glycerol to the medium has little effect on parasite killing by the CTCB compounds (Supplementary Table 3).
# The killing of T. b. brucei GVR35-Luc2 was assessed by adding D-luciferin to live cells resulting in the production of light in the presence of ATP and luciferase activity. Compounds of interest were serially diluted from 16 µM to 0.5 µM in Modified HMI-9 medium and added into sterile white, flat bottom 96-well plate (Greiner Inc.). 32,000 trypanosomes were added to each well. The plates were incubated at 37 °C and 5% CO2. At the end of each incubation, 200 µg/ml of D-luciferin was added to each well and incubated for 10 min. Luminescence was measured using a BMG plate reader and percentage cell viability versus incubation time was determined.
# [1] = 0.5 h, mean, suramin, fexinidazole, SCYX-7158 11 µM, CTCB-405 4 µM
# [2] = 1 h, mean, suramin, fexinidazole, SCYX-7158 11 µM, CTCB-405 4 µM
# [3] = 8 h, mean, suramin, fexinidazole, SCYX-7158 11 µM, CTCB-405 4 µM
# [4] = GVR35 TTK, 24 h incubation, average
# [5] = GVR35 TTK, 24 h incubation, from average
# [6] = 6 h, mean, suramin, fexinidazole, SCYX-7158 11 µM, CTCB-405 4 µM
# [7] = GVR35 TTK, 24 h sheet, summary line marked "4"
compound,measurement,setting,value
"CSc1ccc(OCc2ncc([N+](=O)[O-])n2C)cc1 [Fexinidazole, fexinidazole]",TTK (time-to-kill) value,,> 20 h
same,"% Cell viability, single replicates",0.5 h,54% and 59%
same,"% Inhibition, single replicates",0.5 h,46% and 41%
same,% Cell viability,"0.5 h, average",57%
same,% Inhibition,[1],43%
same,"% Cell viability, single replicates",1 h,46% and 57%
same,"% Inhibition, single replicates",1 h,54%
same,% Cell viability,"1 h, average",52%
same,% Inhibition,[2],48%
same,"% Cell viability, single replicates",2 h,61%
same,"% Inhibition, single replicates",2 h,39%
same,% Cell viability,"2 h, average",57%
same,"% Cell viability, single replicates",4 h,58% and 63%
same,"% Inhibition, single replicates",4 h,42% and 37%
same,% Cell viability,"4 h, average",61%
same,"% Cell viability, single replicates",6 h,62% and 60%
same,"% Inhibition, single replicates",6 h,38% and 40%
same,% Cell viability,"6 h, average",61%
same,"% Cell viability, single replicates",8 h,55%
same,"% Inhibition, single replicates",8 h,45%
same,% Cell viability,"8 h, average",55%
same,% Inhibition,[3],45%
same,"% Cell viability, Average",[4],18%
same,"Luminescence (medium-subtracted), Average","GVR35 TTK, 24 h incubation",18856.5
same,% Inhibition,[5],83%
same,"% Cell viability, individual replicates","GVR35 TTK, 24 h incubation",16% and 19%
same,"% Inhibition, individual replicates","GVR35 TTK, 24 h incubation",84% and 81%
same,"Luminescence (medium-subtracted), individual replicates","GVR35 TTK, 24 h incubation",18923.5 and 18789.5
same,"Luminescence, Average",0.5 hour incubation,5213
same,"Luminescence, individual replicates",0.5 hour incubation,5083 and 5343
same,"Luminescence, Average",1hour incubation,6274
same,"Luminescence, individual replicates",1hour incubation,5678 and 6870
same,"Luminescence, Average",2hour incubation,8146
same,"Luminescence, individual replicates",2hour incubation,8389 and 7903
same,"Luminescence, Average",4hour incubation,11135
same,"Luminescence, individual replicates",4hour incubation,10890 and 11380
same,"Luminescence, Average",6hour incubation,20713
same,"Luminescence, individual replicates",6hour incubation,21007 and 20418
same,"Luminescence, Average",8hour incubation,17103
same,"Luminescence, individual replicates",8hour incubation,17279 and 16927
same,"Luminescence, Average",24hour incubation,18857
same,"Luminescence, individual replicates",24hour incubation,18924 and 18790
CC1(C)OB(O)c2cc(NC(=O)c3ccc(F)cc3C(F)(F)F)ccc21 [SCYX-7158],"% Cell viability, single replicates",0.5 h,82% and 93%
same,"% Inhibition, single replicates",0.5 h,18% and 6.51%
same,% Cell viability,"0.5 h, average",88%
same,% Inhibition,[1],12%
same,"% Cell viability, single replicates",1 h,78%
same,"% Inhibition, single replicates",1 h,22%
same,% Cell viability,"1 h, average",80%
same,% Inhibition,[2],20%
same,"% Cell viability, single replicates",2 h,84% and 77%
same,"% Inhibition, single replicates",2 h,16% and 23%
same,% Cell viability,"2 h, average",80%
same,"% Cell viability, single replicates",4 h,53% and 55%
same,"% Inhibition, single replicates",4 h,47% and 45%
same,% Cell viability,"4 h, average",54%
same,% Inhibition,"4 h, mean, suramin, fexinidazole, SCYX-7158 11 µM, CTCB-405 4 µM",46%
same,"% Cell viability, single replicates",6 h,30% and 31%
same,"% Inhibition, single replicates",6 h,70% and 69%
same,% Cell viability,"6 h, average",31%
same,% Inhibition,[6],69%
same,"% Cell viability, single replicates",8 h,16% and 15%
same,"% Inhibition, single replicates",8 h,84% and 85%
same,% Cell viability,"8 h, average",16%
same,% Inhibition,[3],84%
same,"% Cell viability, Average",[4],-0.0868%
same,"Luminescence (medium-subtracted), Average","GVR35 TTK, 24 h incubation",8.5
same,% Inhibition,[5],100%
same,"% Cell viability, individual replicates","GVR35 TTK, 24 h incubation",-0.0698% and -0.104%
same,"% Inhibition, individual replicates","GVR35 TTK, 24 h incubation",100%
same,"Luminescence (medium-subtracted), individual replicates","GVR35 TTK, 24 h incubation",16.5 and 0.5
same,% Cell viability,[7],-0.085%
same,"Luminescence, Average",0.5 hour incubation,8054
same,"Luminescence, individual replicates",0.5 hour incubation,7697 and 8411
same,"Luminescence, Average",1hour incubation,9657
same,"Luminescence, individual replicates",1hour incubation,9531 and 9783
same,"Luminescence, Average",2hour incubation,11337
same,"Luminescence, individual replicates",2hour incubation,11424 and 11249
same,"Luminescence, Average",4hour incubation,9915
same,"Luminescence, individual replicates",4hour incubation,9827 and 10004
same,"Luminescence, Average",6hour incubation,10493
same,"Luminescence, individual replicates",6hour incubation,10240 and 10745
same,"Luminescence, Average",8hour incubation,4975
same,"Luminescence, individual replicates",8hour incubation,5108 and 4842
same,"Luminescence, Average",24hour incubation,8.5
same,"Luminescence, individual replicates",24hour incubation,17 and 0.5
"Cc1ccc(C(=O)Nc2ccc(S(=O)(=O)O)c3cc(S(=O)(=O)O)cc(S(=O)(=O)O)c23)cc1NC(=O)c1cccc(NC(=O)Nc2cccc(C(=O)Nc3cc(C(=O)Nc4ccc(S(=O)(=O)O)c5cc(S(=O)(=O)O)cc(S(=O)(=O)O)c45)ccc3C)c2)c1 [Suramin, suramin]",TTK (time-to-kill) value,,> 20 h
same,"% Cell viability, single replicates",0.5 h,91% and 97%
same,"% Inhibition, single replicates",0.5 h,9% and 2.59%
same,% Cell viability,"0.5 h, average",94%
same,% Inhibition,[1],6%
same,"% Cell viability, single replicates",1 h,87% and 92%
same,"% Inhibition, single replicates",1 h,13% and 7.55%
same,% Cell viability,"1 h, average",90%
same,% Inhibition,[2],10%
same,"% Cell viability, single replicates",2 h,95% and 89%
same,"% Inhibition, single replicates",2 h,4.69% and 11%
same,% Cell viability,"2 h, average",92%
same,% Inhibition,"2 h, mean, suramin, fexinidazole, SCYX-7158 11 µM, CTCB-405 4 µM",8%
same,"% Cell viability, single replicates",4 h,86%
same,"% Inhibition, single replicates",4 h,14% and 8.56%
same,% Cell viability,"4 h, average",89%
same,"% Cell viability, single replicates",6 h,80% and 82%
same,"% Inhibition, single replicates",6 h,20% and 18%
same,% Cell viability,"6 h, average",81%
same,% Inhibition,[6],19%
same,"% Cell viability, single replicates",8 h,62% and 63%
same,"% Inhibition, single replicates",8 h,38% and 37%
same,% Cell viability,"8 h, average",62%
same,% Inhibition,[3],38%
same,"% Cell viability, Average",[4],1.08%
same,"Luminescence (medium-subtracted), Average","GVR35 TTK, 24 h incubation",1271
same,% Inhibition,[5],99%
same,"% Cell viability, individual replicates","GVR35 TTK, 24 h incubation",1.06% and 1.11%
same,"% Inhibition, individual replicates","GVR35 TTK, 24 h incubation",99%
same,"Luminescence (medium-subtracted), individual replicates","GVR35 TTK, 24 h incubation",1370.5 and 1171.5
same,% Cell viability,[7],1.08%
same,"Luminescence, Average",0.5 hour incubation,8640
same,"Luminescence, individual replicates",0.5 hour incubation,8520 and 8761
same,"Luminescence, Average",1hour incubation,10793
same,"Luminescence, individual replicates",1hour incubation,10604 and 10981
same,"Luminescence, Average",2hour incubation,13042
same,"Luminescence, individual replicates",2hour incubation,13027 and 13057
same,"Luminescence, Average",4hour incubation,16276
same,"Luminescence, individual replicates",4hour incubation,16058 and 16495
same,"Luminescence, Average",6hour incubation,27456
same,"Luminescence, individual replicates",6hour incubation,27109 and 27803
same,"Luminescence, Average",8hour incubation,19408
same,"Luminescence, individual replicates",8hour incubation,19222 and 19594
same,"Luminescence, Average",24hour incubation,1271
same,"Luminescence, individual replicates",24hour incubation,1371 and 1172
